From patent publication US9771334B2, “Triketone compound and preparation method and use thereof” (SHANDONG CYNDA CHEMICAL CO., LTD., priority 2013, dated 2017)

Columns and labels:
Assay in all cases: Herbicidal activity, pot culture method (primary and secondary screening test)
Assay type in all cases: in vivo
Conditions in all cases: primary screening, pot culture, 150 g/ha, sprayed at 3-leaf stage, result 15 days later
echinochloa crusgalli = test system: echinochloa crusgalli
Source text: (§1) This test example is for describing the herbicidal activity inhibition ratio (%) (the dose is 150 g/ha) of the compound with a structure shown in Formula (I). Primary screening test (pot culture method): The test targets are abutilon theophrasti, digitaria sanguinalis, amaranthus retroflexus, echinochloa crusgalli, eclipta prostrata and setaria viridis. Take flowerpots with an inner diameter of 6 cm, put composite soil (vegetable garden soil:seedling matrix=1:2, v/v) into them till 3⁄4 of flowerpot height, directly sow the above six weed targets (budding rate>85%), cover them with 0.2 cm thick soil, and keep them for future use when the weeds grow to 3-leaf stage. Each compound is dissolved in N,N-dimethylformamide at a dose of 150 g/ha and diluted with distilled water into a 0.2 g/L solution. The solution is sprayed through an automatic spray tower. After the solution on weed leaves is aired dry, the flowerpots are moved into a greenhouse for cultivation. The result is investigated 15 days later. By the same method adopted in primary screening test, a secondary screening test is done on some typical compounds, such as: 5, 6, 20, 21, 23, 34, 47, 65, 66, 70 and 91 at a reduced dose, and the test result is compared with mesotrione which is commercially available and has a good herbicidal effect. The test method is same as that adopted in primary screening test. Mesotrione is bought from Hubei […] Chemical Co., Ltd.

setaria viridis = test system: setaria viridis
Source text: as §1

eclipta prostrata = test system: eclipta prostrata
Source text: as §1

amaranthus retroflexus = test system: amaranthus retroflexus
Source text: as §1

abutilon theophrasti = test system: abutilon theophrasti
Source text: as §1

digitaria sanguinalis = test system: digitaria sanguinalis
Source text: as §1

| Structure (SMILES) | herbicidal activity inhibition ratio (%), Echinochloa crusgalli (echinochloa crusgalli) | herbicidal activity inhibition ratio (%), Setaria viridis (setaria viridis) | herbicidal activity inhibition ratio (%), Eclipta prostrata (eclipta prostrata) | herbicidal activity inhibition ratio (%), Amaranthus retroflexus (amaranthus retroflexus) | herbicidal activity inhibition ratio (%), Abutilon theophrasti (abutilon theophrasti) | herbicidal activity inhibition ratio (%), Digitaria sanguinalis (digitaria sanguinalis) |
| --- | --- | --- | --- | --- | --- | --- |
| Cn1c(=O)n(-c2ccc(Cl)cc2)c(=O)c2cc(C(=O)C3=C(O)CCCC3=O)ccc21 [Compound 1, 3-(4-chlorphenyl)-6-[(2-hydroxy-6-oxo-1-cyclohexenyl)carbonyl]-1-methylquinazoline-2,4(1H,3H)-dione] | 90% | 100% | 85% | 90% | 90% | 90% |
| Cn1c(=O)n(-c2ccc(Cl)cc2)c(=O)c2cc(C(=O)C3=C(O)CC(C)(C)CC3=O)ccc21 [Compound 2] | 80% | 80% | 75% | 95% | 100% | 90% |
| Cn1c(=O)n(-c2cccc(Cl)c2)c(=O)c2cc(C(=O)C3=C(O)CCCC3=O)ccc21 [Compound 3] | 80% | 100% | 80% | 100% | 80% | 70% |
| Cn1c(=O)n(-c2cccc(Cl)c2)c(=O)c2cc(C(=O)C3=C(O)CC(C)(C)CC3=O)ccc21 [Compound 4] | 85% | 90% | 90% | 100% | 100% | 100% |
| Cn1c(=O)n(-c2cc(Cl)cc(Cl)c2)c(=O)c2cc(C(=O)C3=C(O)CCCC3=O)ccc21 [Compound 7] | 80% | 80% | 60% | 90% | 100% | 70% |
| Cn1c(=O)n(-c2cc(Cl)cc(Cl)c2)c(=O)c2cc(C(=O)C3=C(O)CC(C)(C)CC3=O)ccc21 [Compound 8] | 75% | 85% | 80% | 100% | 0% | 90% |
| Cn1c(=O)n(-c2ccc(F)cc2)c(=O)c2cc(C(=O)C3=C(O)CCCC3=O)ccc21 [Compound 9] | 85% | 100% | 95% | 100% | 100% | 75% |
| Cn1c(=O)n(-c2cccc(F)c2)c(=O)c2cc(C(=O)C3=C(O)CCCC3=O)ccc21 [Compound 10] | 85% | 80% | 80% | 85% | 100% | 75% |
| Cn1c(=O)n(-c2cccc(F)c2)c(=O)c2cc(C(=O)C3=C(O)CC(C)(C)CC3=O)ccc21 [Compound 11] | 85% | 80% | 85% | 85% | 85% | 95% |
| Cn1c(=O)n(-c2ccccc2F)c(=O)c2cc(C(=O)C3=C(O)CCCC3=O)ccc21 [Compound 12] | 80% | 100% | 80% | 80% | 85% | 80% |
| Cn1c(=O)n(-c2ccccc2F)c(=O)c2cc(C(=O)C3=C(O)CC(C)(C)CC3=O)ccc21 [Compound 13] | 90% | 100% | 90% | 100% | 100% | 90% |
| Cc1ccc(-n2c(=O)c3cc(C(=O)C4=C(O)CCCC4=O)ccc3n(C)c2=O)cc1 [Compound 14] | 75% | 75% | 75% | 100% | 75% | 75% |
| Cc1ccc(-n2c(=O)c3cc(C(=O)C4=C(O)CC(C)(C)CC4=O)ccc3n(C)c2=O)cc1 [Compound 15] | 70% | 75% | 60% | 70% | 60% | 75% |
| Cc1ccc(-n2c(=O)c3cc(C(=O)C4=C(O)CC(C)CC4=O)ccc3n(C)c2=O)cc1 (stereo not drawn) [Compound 16] | 85% | 100% | 75% | 70% | 70% | 100% |
| Cc1cccc(-n2c(=O)c3cc(C(=O)C4=C(O)CCCC4=O)ccc3n(C)c2=O)c1 [Compound 17] | 70% | 100% | 95% | 100% | 70% | 75% |
| Cc1cccc(-n2c(=O)c3cc(C(=O)C4=C(O)CC(C)(C)CC4=O)ccc3n(C)c2=O)c1 [Compound 18] | 70% | 85% | 75% | 100% | 75% | 90% |
| Cc1cccc(-n2c(=O)c3cc(C(=O)C4=C(O)CC(C)CC4=O)ccc3n(C)c2=O)c1 (stereo not drawn) [Compound 19] | 70% | 100% | 85% | 100% | 75% | 85% |
| Cn1c(=O)n(-c2ccc(F)cc2)c(=O)c2cc(C(=O)C3=C(O)CC(C)(C)CC3=O)ccc21 [Compound 22] | 80% | 95% | 90% | 100% | 100% | 95% |
